Experimental findings from patent US20160030628A1, “TREATMENT FOR BILE LEAKAGE” (3-D MATRIX, LTD, priority 2013, published 2016) are described below.

Assay [1] relates to bile leakage from punctured gall bladder. Briefly: bile leakage occlusion in a porcine gall bladder needle puncture model. Format: in vivo. To be noted: 2.5% w/v RADA16. The procedure:
(§1) The objective of this study was to evaluate a self-assembling peptide solution (RADA16 in the form of PuraMatrix™ peptide hydrogel by 3-D Matrix, LTD.) as a bile leakage occlusion material in a porcine model. A histopathology assessment was also performed.
On the day of testing, an animal was sedated and prepared for surgery. A bile leakage model was prepared by puncturing needle punctures, using a 20G injection needle in the gall bladder of the test subject, as shown in FIG. 1A.
Subsequent to applying the self-assembling peptide solution, a bile leakage occlusion was confirmed at 1 minute, 20 seconds, as shown in FIG. 1D.
It was determined that 0.5 mL of the peptide solution was used to achieve the bile leakage occlusion of the needle puncture in the gallbladder.

For assay [2], the system named is gallbladder bile leakage occlusion site. Kind of assay: histopathology assessment (H&E) of the bile leakage occlusion site. In kind it is in vivo, porcine. The following applies: gallbladder fixed in formalin after occlusion with 2.5% w/v RADA16. The procedure:
as §1
After bile leakage occlusion was achieved, the gallbladder was fixed in formalin and the H&E-stained pathological specimen was made at the bile leakage occlusion site.

As to “Arg-Ala-Asp-Ala-Arg-Ala-Asp-Ala-Arg-Ala-Asp-Ala-Arg-Ala-Asp-Ala (RADARADARADARADA) [RADA16, self-assembling peptide; 1 and 2.5 w/v percent aqueous solutions available as PuraMatrix peptide hydrogel by 3-D Matrix]”, the “volume of peptide solution used to achieve the bile leakage occlusion of the needle puncture” value in assay [1] (20G needle puncture in the gallbladder, porcine model) was 0.5 mL. The “secondary bile leakage after excess hydrogel was irrigated from the site” value in assay [1] (checked at 3 minutes, porcine gall bladder puncture) is reported as “absence of a secondary bile leakage was confirmed”. Further, the “histopathological finding at bile leakage occlusion site (H&E-stained specimen, FIG. 2)” value in assay [2] is given as “occluded the bile leakage site”.
